Results from ChEMBL document CHEMBL5385950, “Terpenoids from the Soft Coral Stereonephthya bellissima” (J Nat Prod, 2024).
Activity calls are given as the source filed them. The calls are words filed in the database; no cut-off is given here.

Species on record: Danio rerio
Assay: Pro-angiogenesis activity against PTK787 induced vascular injury in Tg(vegfr2: EGFP) zebrafish at 20 uM measured after 24 hrs by fluorescence imaging analysis
Type: functional, organism-based

With CC(=O)C1=CCC[C@]23O[C@H]2CC[C@](C)(O)[C@@]13C the Activity was “Active”.
